Experimental data as given in patent publication US9388419B2 (The Regents of the University of Colorado, a body corporate, priority 2009, dated 2016).
Where two headings read alike, the source gives them in different places.

Key:
E. coli Mach1-T1 = test: Minimum inhibitory concentration (MIC) of 3-HP, microaerobic, 96 well-plate, MOPS minimal media; type: cell-based, Escherichia coli; settings: Mach1-T1 with feedback resistant aroH mutant plasmid, MOPS minimal media
Experimental: Overnight cultures of strains were grown in 5 ml LB (with antibiotic where appropriate). A 1 v/v % was used to inoculate a 15 ml conical tube filled to the top with MOPS minimal media and capped. After the cells reached mid exponential phase, the culture was diluted to an OD600 of 0.200. The cells were further diluted 1:20 and a 10 ul aliquot was used to inoculate each well (˜10^4 cells per well).
The minimum inhibitory concentration (MIC) was determined microaerobically in a 96 well-plate format. Overnight cultures of strains were grown in 5 mL LB (with antibiotic where appropriate). A 1% (v/v) inoculum was introduced into a 15 ml culture of MOPS minimal media. After the cells reached mid-exponential phase, the culture was diluted to an OD600 of 0.200. The cells were further diluted 1:20 and a 10 μL aliquot was used to inoculate each well of a 96 well plate (˜10^4 cells per well).

E. coli K12 = type: cell-based, Escherichia coli; settings: E. coli K12+pSMART-LC-Kan-cynTS vs E. coli K12, M9 minimal media
Experimental: Overnight cultures of strains were grown in 5 ml LB (with antibiotic where appropriate) at 37° C. in a shaking incubator. A 1 v/v % was used to inoculate 10 mL of M9 minimal media. After the cells reached mid-exponential phase, the culture was diluted to an OD600 of 0.200. The cells were further diluted 1:20 and a 10 ul aliquot was used to inoculate each well (˜10^4 cells per well). […] The MIC endpoint is the lowest concentration of compound at which there was no visible growth.

E. coli = type: cell-based, Escherichia coli; settings: anaerobic; strain BX_00319.0: BW25113 wild type + pK223-aroH; M9 + Amp 100 μg/mL + 1 mM IPTG
Experimental: (§1) For MIC evaluations, the final results are expressed in chemical agent concentrations determined by analysis of the stock solution by HPLC (i.e., see Subsection Mb).
(§2) The minimum inhibitory concentration (MIC) was determined anaerobically in a 96 well-plate format. […] Media supplements were added according to levels reported in the Supplements Table, where specified. Overnight cultures of strains were grown in triplicate in 5 mL LB (with antibiotic where appropriate). A 1% (v/v) inoculum was introduced into a 5 ml culture of M9 minimal media.

B. subtilis = test: MIC protocol B. subtilis aerobic (Common Methods, M9 media + glutamate, 24 hours); type: cell-based, Bacillus subtilis; settings: strain BSX_0003.0 (pWH1520, control), M9 + glu + trp + 1 mM Xylose
Experimental: as §1
as §2, with “aerobically” for “anaerobically”, “Table” for “Table,”, “media+glutamate.” for “media.”

[1] = system: Yeast strains (S288C background); type: cell-based, Saccharomyces cerevisiae
Experimental: The minimum inhibitory concentration (MIC) was determined aerobically in a 96 well-plate format. […] Media supplements were added according to levels reported in the Supplements Table, where specified. Overnight cultures of strains were grown in triplicate in 5 mL SD media with vitamins (Methods in Enzymology vol. 350, page 17 (2002)). A 1% (v/v) inoculum was introduced into a 5 ml culture of SD minimal media without vitamins. After the cells reached mid-exponential phase, the culture was diluted to an OD600 of 0.200. The cells were further diluted 1:5 and a 10 μL aliquot was used to inoculate each well of a 96 well plate (˜10^4 cells per well) to total volume of 100 uL. […] Plates were incubated for 72 hours at 30 C.

[2] = system: wild-type E. coli BW25113; test: Toleragram / OD600 / doublings at 3HP 0-50 g/L, E. coli aerobic; type: cell-based, Escherichia coli; settings: control E. coli, aerobic condition, FIG. 15B
Experimental: Overnight cultures of wild-type E. coli BW25113 were grown in triplicate in 5 mL standard LB medium. 100 uL of overnight cultures were used to inoculate triplicate 5 mL samples of M9 minimal medium+3HP, containing 47.7 mM Na2HPO4, 22 mM KH2PO4, 8.6 mM NaCl, 18.7 mM NH4Cl, 2 mM MgSO4, 0.1 mM CaCl2, and 0.4% glucose, with 3HP concentrations ranging from 0-50 g/L. Starting OD600 ranged from 0.02-0.08. Cultures were incubated at 37 C for about 24 hours, and OD600 was recorded every 1-2 hours for the first 8 hours with a final OD600 recorded at about 24 hours. Maximum specific growth rates (μmax) were calculated by determining the optimal fit of exponential trend lines with OD data for the evaluation period. Specific changes in OD600 over approximately 24 hours (Δ24hrOD600) were calculated as the difference in t=24 hr and t=0 optical density, Δ24hrOD600=(ODt=24)−(ODt=0). Specific number of doublings (Nd) were calculated by solving for N in the equation 2^N=(ODt=24)/(ODt=0).

[3] = 3-HP preparation (TCI America): behaviour of samples neutralized to pH 7.0; type: physicochemical; settings: 3-HP from TCI America, ether extracted, neutralized with 10 M NaOH to pH 7.0
From the text: (§3) 3-HP was obtained from TCI America (Portland, Oreg.). Significant acrylic acid and 2-oxydipropionic contamination was observed via HPLC analysis. Samples were subsequently treated by diethyl ether extraction to remove acrylic acid and a portion of the 2-oxydipropionic contaminants. Samples were then neutralized with 10 M NaOH to a final pH of 7.0. […] The working stock solution was used for the selection and MIC evaluations in this example.
as §3, with “selection, growth rates” for “selection”

## O=C(O)CCO [3-HP, 3-hydroxypropionic acid]
E. coli Mach1-T1
  improvement in MIC of 3-HP, cells comprising the aroH mutant vs control: 40%
E. coli K12
  improvement in the MIC of 3-HP with cynTS plasmid: over sixty percent
E. coli
  % Increase Over Control: 33%
B. subtilis
  Avg 24 hr ΔOD600: 0.00
[1]; S288C, SC media, no supplement, versus SD control, aerobic
  % Increase Over Control: 33%
[1]; strain YX-022 (pyes2.1-Aro3 pRS425-ILV6) versus control, aerobic
  % Increase Over Control: 50%
[1]; strain YX-CJR-010 (pyes2.1-Thr1) versus YX-CJR-001, aerobic
  % Increase Over Control: 50%
[1]; strain YX-CJR-014 (pyes2.1-arg2) versus YX-CJR-001, aerobic
  % Increase Over Control: 50%
[1]; strain YX-CJR-017 (pyes2.1-Aro7) versus YX-CJR-001, aerobic
  % Increase Over Control: 75%
[2]
  3-HP concentration at which a dramatic reduction in cell density (OD600) at 24 hours starts: ≥ 30 g/L
[3]
  concentration above which considerable 3-HP polymerization was observed at neutral pH: > 35 g/L
  concentration above which considerable insoluble matter was observed at neutral pH: > 35 g/L
